Source: PMC9579733 (Journal of Orthopaedic Translation, 2022)

Legend:
[1] = ref [9],[10]; cited from earlier work
[2] = system: farnesoid X receptor (FXR); settings: ref [11],[12]; cited from earlier work
[3] = system: FXR-RUNX2 signalling; assay: FXR-RUNX2 signalling in femur of OVX mice; type: in vivo, C57BL/6J mice; settings: 20 mg/kg intravenously daily for 4 weeks, qRT-PCR, n = 6
[4] = system: MC3T3-E1 cells; assay: ALP activity analysis of MC3T3-E1 cells; type: cell-based, mouse; settings: osteogenic differentiation medium, GPA 50 μM or SGPA 2.5-10 μM; 14 days (method) / 7 days (Fig. 3 legend)
[5] = system: osteoblast-specific factor 2 (OSF-2); settings: ref [21]; cited from earlier work
[6] = system: human and mouse OBs; settings: peptide screened by phage technology; ref [21]; cited from earlier work

Row | Compound | tissue enrichment of GPA [1] | activation of farnesoid X receptor (FXR) [2] | mRNA expression of Bsep (a target gene for FXR) in femur [3] | mRNA expression of Runx2 in femur [3] | ALP activity [4] | affinity with osteoblast-specific factor 2 (OSF-2) [5] | targeting of OBs [6]
1 | O=C(O)C1=CO[C@@H](O[C@@H]2O[C@H](CO)[C@@H](O)[C@H](O)[C@H]2O)[C@@H]2C(CO)=CC[C@H]12 [GPA, Geniposidic acid] | enriched in liver and kidney | activated | significantly increased | significantly increased | increased | – | –
2 | Ser-Asp-Ser-Ser-Asp [SDSSD] | – | – | – | – | – | high affinity | can specifically target both human and mouse OBs
